Test results reported in patent publication US20240000949A1, “Nucleic Acid-Derivatized Therapeutics” (The University of Chicago, priority 2020, published 2024).
{Alexa647} = Alexa Fluor 647 dye

Key:
E0771 tumors = experiment: E0771 tumor growth after i.v. delivery (incl. antibody depletion, anti-PD-L1 and CTX combinations); type: in vivo, mouse; conditions: E64-DNA 25 μg i.v., CTX 50 mg/kg
Procedure: E64-DNA or DNA (25 μg) was intravenously delivered (i.v.; retro-orbital) into E0771 tumor-bearing mice. E0771 tumor growth over 5 days after a single injection is shown. n=8/group. Statistical significance was calculated via two-tailed Student's t-test (p<0.05 values are provided); error bars indicate the mean of independent experiments±s.e.m. ns, not significant. All measurements (n) are biological replicates.
Experimental design for depleting TAMs with α-CSF1R antibody (top). Effect of IgG or α-CSF1R (300 μg) on E0771 tumor growth (bottom, left) and CD8^+ effector T cells in tumors (bottom, right) in mice treated with E64-DNA (n=8/group) or DNA (n=6/group). E64-DNA or DNA (25 μg) was intravenously delivered (i.v.; retro-orbital) into E0771 tumor-bearing mice.
Effects of α-CD8, α-PD-L1, or IgG antibodies on E0771 tumor growth in mice treated with E64-DNA or DNA. […]
E64-DNA or DNA (25 μg) was intravenously delivered (i.v.; retro-orbital) into E0771 tumor-bearing mice. […] Statistical significance was calculated via two-tailed Student's t-test (p<0.05 values are provided); error bars indicate the mean of independent experiments±s.e.m. ns, not significant. […]

TAMs / OT-1 CD8+ T cells = experiment: MHCI-restricted antigen cross-presentation by TAMs (OVA-OT-1 CD8+ T cell system); type: cell-based, mouse; conditions: 100 nM, alone
Procedure: OT-1 CD8^+ T-cell activation (FIG. 53B) and proliferation (FIG. 53C) after 72h of co-culture with TAMs. n=3/group. Vehicle (Veh)=phosphate-buffered saline. Statistical significance was calculated via two-tailed Student's t-test (p<0.05 values are provided); error bars indicate the mean of independent experiments±s.e.m. ns; not significant. TAMs were isolated from E0771 tumors. All measurements (n) are biological replicates.
CD3/CD28 antibodies were included as a positive control for T cell activation. n=3/group. Statistical significance was calculated via two-tailed Student's t-test (p<0.05 values are provided); error bars indicate the mean of independent experiments±s.e.m. All measurements (n) are biological replicates. […]
T cell activation—CD8^+ or CD4^+ T cells were treated with BD GolgiPlug for the final 6 h of coculture with macrophages to allow intracellular IFNγ accumulation. […] The percent of IFNγ^+/CD44^+CD8^+ T cells was quantified by flow cytometry. In some cases, CD8^+ T cell IFNγ production in the culture medium at 72h was quantified using a mouse IFN-γ ELISA kit (Invitrogen).
T cell proliferation—Isolated CD4^+ or CD8^+ T cells were labeled with 5 μM 5,6-carboxyfluorescein diacetate succinimidyl ester (CF SE, Invitrogen) according to the manufacturer's instructions. The number of proliferating cells (CF SE-diluted) was quantified using CountBright™ beads (Invitrogen). […]

tumor growth = conditions: 1 mg, daily; cited from earlier work
[1] = tested on: TAMs isolated from E0771 tumors; experiment: DQ-OVA degradation by TAMs treated ex vivo; type: cell-based, mouse; conditions: 100 nM, 2h ex vivo
Procedure: FIGS. 46A-46B. A lysosome-targeted DNA nanodevice (E64-DNA) promotes antigen cross-presentation by TAMs. FIG. 43A, Representative images (left) and Pearson correlation (right) of co-localization of TMR-Dextran labeled lysosomes (green) with E64-DNA (red). Pearson correlation with and without a 20-pixel shift (˜lysosome diameter) of the green signal. n=15 cells/group. scale bar=[…]. FIG. 43B, DQ-OVA degradation by TAMs treated with E64-DNA, DNA, or E64 (100 nM) for 2h. n=3/group. Statistical significance was calculated via two-tailed Student's t-test (p<0.05 values are provided); error bars indicate the mean of independent experiments±s.e.m. ns; not significant. TAMs were isolated from E0771 tumors. All measurements (n) are biological replicates.
Analysis of lysosomal degradation by DQ-OVA. Lysosomal degradative capacity of macrophages was assessed by a DQ-OVA degradation assay (D-12053, Invitrogen®) according to the manufacturer's instruction. Briefly, 0.2 million cells were incubated with 10 μg/mL of DQ-OVA at room temperature for 15 min, washed, and incubated at 37° C. for another 15 min. DQ-OVA fluorescence was quantified by flow cytometry.

[2] = tested on: Lactate dehydrogenase (LDH) in BMDMs; experiment: LDH activity and lactate in BMDMs under hypoxia; type: cell-based, mouse; conditions: hypoxic (1% 02), 24h, vs vehicle
Procedure: FIG. 82. […] Bone marrow-derived macrophages (BMDMs) were cultured under normoxic (n) or hypoxic (h, 1% 02) conditions for 24h in the presence of vehicle (veh), GNE, or GNE-DNA.
FIG. 83. […] Bone marrow-derived macrophages (BMDMs) were cultured under normoxic (n) or hypoxic (h, 1% 02) conditions for 24h in the presence of vehicle (veh), GNE, or GNE-DNA. Intracellular lactate levels in BMDMs are decreased by GNE or GNE-DNA under hypoxic conditions to levels compared to vehicle.
BMDMs were differentiated from bone marrow stem cells with L-cell conditioned media for six days as previously described (Kratz et al.).

M2 BMDMs = experiment: Uptake by M2 BMDMs in vitro (wt and scavenger receptor knockouts; nucleic acid variants); type: cell-based, mouse; conditions: 30 min
Procedure: FIG. 48. A lysosome-targeted DNA nanodevice (E64-DNA) promotes antigen cross-presentation by TAMs. E64-DNA uptake by M2 BMDMs from wt, Scarb1−/−, Msr1−/−, or Cd36−/− mice. Uptake was quantified by flow cytometry; n=3/group. Statistical significance was calculated via two-tailed Student's t-test (p<0.05 values are provided); error bars indicate the mean of independent experiments±s.e.m. ns; not significant. TAMs were isolated from E0771 tumors. All measurements (n) are biological replicates.
FIGS. 49A-49B. DNA nanodevice uptake and stability. FIG. 49A, Schematic of various fluorescently labeled nucleic acid structures used for uptake studies in BMDMs. Each nucleic acid scaffold is either a single stranded or double stranded 38 mer DNA or RNA sequence. Each scaffold is labelled with an Alexa Fluor® 647 fluorophore on the 5′ end of one of the strands. FIG. 49B, Uptake of various types of nucleic acids by M2 BMDMs. n=3/group. Statistical significance was calculated via two-tailed Student's t-test (p<0.05 values are provided); error bars indicate the mean of independent experiments±s.e.m. ns; not significant. […]
E64-DNA uptake by M2 BMDMs in vitro—E64-DNA (100 nM) or other types of nucleic acids (D1-D2, D2, R1-R2, R2) was incubated with 0.2 million M2-activated BMDMs from wt, Scarb1−/−, Msr1−/−, or Cd36−/− mice for 30 min, washed with PBS, and uptake was assessed by flow cytometry.

BMDMs = experiment: Uptake of fluorescently labelled nucleic acid scaffolds by BMDMs (flow cytometry); type: cell-based, mouse; conditions: pulsed with 50 nM scaffold 30 min, chased 15 min
Text: FIGS. 1A-1B. Uptake of various oligonucleotides by bone marrow-derived macrophages (BMDMs). FIG. 1A, Schematic of various fluorescently labelled nucleic acid structures used for uptake studies in BMDMs. Each nucleic acid scaffold is either a single stranded or double stranded 38 mer DNA (D) or RNA (R) sequence, or a DNA:RNA hybrid or complex. Each scaffold is labelled with an Alexa Fluor® 647N fluorophore on the 5′ end of one of the strands. From left to right, the constructions tested were dsDNA (SEQ ID NO: 40 and SEQ ID NO: 41 or SEQ ID NO: 42), ssDNA (SEQ ID NO: 41), dsRNA (SEQ ID NO: 43 and SEQ ID NO: 44), ssRNA (SEQ ID NO: 43), and ssDNA:ssRNA (SEQ ID NO: 45 and SEQ ID NO: 46). FIG. 1B, BMDMs were pulsed with 100 nM of each nucleic acid scaffold for 30 min. The cells were then washed and chased for 15 min after which were subjected to flow cytometry based quantification. Mean fluorescence intensity (A/IFI) of nucleic acid scaffold uptake by BMDMs is shown.
Various fluorescently labelled scaffolds were tested in a variety of nucleic acid configurations (Table 1).
BMDMs were pulsed with 50 nM of each nucleic acid scaffold for 30 min. The cells were then washed and chased for 15 min after which they were subjected to flow cytometry quantification. A nucleic acid scaffold was then selected for subsequent experiments. […]

[3] = tested on: tumor associated macrophages; experiment: In vivo macrophage labeling by i.v. fluorophore labeled dsDNA, TNBC model; conditions: 25 μg dsDNA i.v., TNBC mouse model
Procedure: (§1) BMDMs were pulsed with 50 nM of each nucleic acid scaffold for 30 min. The cells were then washed and chased for 15 min after which they were subjected to flow cytometry quantification. A nucleic acid scaffold was then selected for subsequent experiments. To test the efficiency of macrophage labeling in vivo, 25 μg of fluorophore labeled dsDNA was injected intravenously into a mouse model of triple-negative breast cancer (TNBC).

alveolar macrophages = experiment: In vivo labeling by intratracheal dsDNA; set-up: species or system mouse; conditions: 100 μg dsDNA intratracheally
Procedure: (§2) FIGS. 2A-2B. dsDNA preferentially targets macrophages in other tissues. FIG. 2A, Fluorescently labeled dsDNA (100 μg) was injected intratracheally into mice and cells were harvested 2 hr post injection with a bronchoalveolar lavage. Uptake by alveolar macrophages (AM, CD45^+CD11b^−CD11c^+) and alveolar neutrophils (AN, CD45^+CD11b^+Ly6G^+) was quantified by flow cytometry. FIG. 2B, Fluorescently labeled dsDNA (100 μg) was injected intraperitoneally into mice and visceral adipose tissue was harvested 4 hr post injection. Adipose tissue was digested to obtain the stromal vascular fraction. dsDNA uptake by cells in the stromal vascular fraction was quantified by flow cytometry. ATM=adipose tissue macrophage (CD45^+CD11b^+F4/80^+).
as §1

[4] = tested on: adipose tissue macrophages; experiment: In vivo labeling by intraperitoneal dsDNA; set-up: species or system mouse; conditions: 100 μg dsDNA intraperitoneally
Procedure: as §2, §1

## O=P1(N(CCCl)CCCl)NCCCO1 (stereo not drawn) [CTX, cyclophosphamide]
E0771 tumors
  sustained tumor regression in the E0771 model: could not be replicated

## CC(C)C[C@H](NC(=O)[C@@H]1O[C@H]1C(=O)O)C(=O)NCCCCNC(=N)N [E64, reference compound]
TAMs / OT-1 CD8+ T cells
  antigen cross-presentation by TAMs: did not affect cross-presentation
Tumor growth
  tumor growth, free E64 high doses: limited impact on tumor growth
[1]
  DQ-OVA degradation by TAMs: could not be reproduced

## O=C1N[C@](c2ccc(N3CCOCC3)cc2)(c2ccsc2)CC(O)=C1Sc1ccccc1Cl [GNE, (R)-GNE-140]
[2]
  Lactate dehydrogenase (LDH) activity in BMDMs: decreased
  intracellular lactate levels in BMDMs: decreased

## ssDNA: single stranded 38 mer DNA, SEQ ID NO: 41, Alexa 647 labelled (TATATATAGGATCTTGCTGTCTGGTGTGCAGTGTTGAT; DNA, 5' {Alexa647}, backbone and methylation of C not given here)
M2 BMDMs
  internalization of 38 nucleotide Alexa 647 scaffolds by M2 BMDMs: required a ssDNA or dsDNA scaffold
BMDMs
  uptake of nucleic acid scaffold by BMDMs: maximal uptake

B1: dsDNA: 38-mer double stranded DNA, SEQ ID NO: 40 and SEQ ID NO: 41, Alexa 647 labelled; targeting module without drug (nucleic acid)
chain 1: ATCAACACTGCACACCAGACAGCAAGATCCTATATATA
chain 2: TATATATAGGATCTTGCTGTCTGGTGTGCAGTGTTGAT
modifications: listed as DNA, chemistry not fully specified
notes: targeting module without drug
[3]
  labeling of tumor associated macrophages preferentially over any other cell type in the tumor microenvironment: > 90%
M2 BMDMs
  internalization of 38 nucleotide Alexa 647 scaffolds by M2 BMDMs: required a ssDNA or dsDNA scaffold
Alveolar macrophages
  labeling of alveolar macrophages preferentially over other cell types: > 95%
BMDMs
  uptake of nucleic acid scaffold by BMDMs: maximal uptake
TAMs / OT-1 CD8+ T cells
  antigen cross-presentation by TAMs: did not affect cross-presentation
[4]
  labeling of adipose tissue macrophages preferentially over other cell types: 70%
[1]
  DQ-OVA degradation by TAMs: could not be reproduced
